# From patent publication US7718700B2, “Growth factor-binding compounds and methods of use” (Yale University, priority 2004, dated 2010)
# Experiments:
# EGFR = target: T1, EGFR (Homo sapiens, UniProt P00533); experiment: 125I-EGF binding to its receptor on EGFR/NIH 3T3 cells; settings: concentrations as high as 100 μM
# T1 construct: expressed in transfected cells; host or cells: NIH 3T3 (EGFR/NIH 3T3)
# Procedure: Flk-1/NIH 3T3, NIH 3T3 and EGFR/NIH 3T3 cells were incubated with ^125I-VEGF, ^125I-PDGF and ^125I-EGF (50,000 cpm/well) respectively, along with increasing concentrations of GFB204. Cells were incubated at 4° C. for 0.5 hours, then washed three times with PBS and three times with lysis buffer prior to determining ^125I counts as described under Materials and Methods. An excess of cold VEGF, PDGF, and EGF was used to obtain non-specific binding levels. FIGS. 2A-2C show specific binding (% control) for PDGFR, Flk-1, and EGFR, respectively.
# Binding of ^125I-growth factors to their receptors. The binding assay of ^125I-VEGF, ^125I-PDGF and ^125I-EGF to their respective receptors was carried out as described previously (Blaskovich, M. A. et al. Nat Biotechnol, 2000, 18:1065-70. Briefly, Flk-1/NIH 3T3 cells, NIH 3T3 cells and EGFR/NIH 3T3 cells were incubated with ^125I-VEGF, ^125I-PDGF and ^125I-EGF (50,000 cpm/well), respectively, and increasing concentrations of GFB204. Cells were incubated at 4° C. for 0.5 hours, then washed three times with PBS and three times with 25 mM Tris, pH 8.0, 1% Triton-X-100, 10% glycerol, and 1% SDS prior to determining ^125I counts on a gamma counter (Beckmann Inc.). An excess of cold growth factors were used to obtain nonspecific binding levels.
# PDGF = PDGF (Homo sapiens, UniProt P01127); experiment: Tryptophan fluorescence titration of PDGF; format: binding; settings: emission at 334 nm
# Procedure: (§1) FIGS. 2D and 2E illustrate that GFB-204 binds PDGF and VEGF as indicated by growth factor tryptophan when increased amounts of GFB204 were added to PDGF and VEGF, respectively. The fluorescence was monitored by excitation at 295 nm and 228 nm, respectively, and emission at 334 nm.
# (§2) Both VEGF and PDGF contain tryptophans that fluoresce at […] when excited at […].
# VEGF = target: T2, VEGF (Homo sapiens, UniProt P15692); experiment: Tryptophan fluorescence titration of VEGF; format: binding; settings: emission at 334 nm
# T2 sequence (P15692 27-191 isoform P15692-4): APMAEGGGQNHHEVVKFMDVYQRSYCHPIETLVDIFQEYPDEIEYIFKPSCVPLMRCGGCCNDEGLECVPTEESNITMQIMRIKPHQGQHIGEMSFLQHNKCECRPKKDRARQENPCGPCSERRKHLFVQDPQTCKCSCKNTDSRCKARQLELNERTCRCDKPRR
# Procedure: as §1, §2
# [1] = system: EGF-stimulated Erk1, Erk2, Akt and STAT3 phosphorylation; experiment: EGF-stimulated phosphorylation of Erk1/2, Akt and STAT3 in EGFR/NIH 3T3 cells; format: cell-based, mouse; settings: GFB204 10 μM
# Procedure: (§3) FIGS. 3A and 3B show the effect of GFB204 on growth factor stimulated Erk1, Erk2, Akt, and STAT3 phosphorylation. GFB204 inhibits VEGF and PDGF stimulation of Flk-1 tyrosine phosphorylation and Erk1/Erk2 phosphorylation (FIG. 3A). NIH 3T3 cells or Flk-1/NIH 3T3 cells were treated with increasing concentrations of GFB204 for 5 minutes prior to stimulation with PDGFBB (10 ng/ml) or VEGF (50 ng/ml), respectively, for 10 minutes. The cells were then lysed and processed for SDS-PAGE Western blotting with an antibody specific for phosphotyrosine-Flk-1 or anti-phosphotyrosine for PDGFR tyrosine phosphorylation or phospho-Erk1/2. GFB204 effects on growth factor-stimulated Erk1, Erk2, Akt and STAT3 phosphorylation (FIG. 3B). NIH 3T3, Flk-1/NIH 3T3, IGF-1R/NIH 3T3 or EGFR/NIH 3T3 cells were treated with GFB204 (10 μM) prior to stimulation with PDGF (NIH 3T3) VEGF (Flk-1/NIH 3T3), EGF (EGFR/NIH 3T3), bFGF (NIH 3T3) or IGF-1 (IGF-1R/NIH 3T3). The cells were then harvested and processed for SDS-PAGE Western blotting with antibodies specific for phospho-Erk1/2, phospho-Akt and phospho-STAT3.
# (§4) Growth factor-mediated stimulation of phosphorylation of Erk1/2, Akt and STAT3. […]
# [2] = system: IGF-1-stimulated Erk1, Erk2, Akt and STAT3 phosphorylation; experiment: IGF-1-stimulated phosphorylation of Erk1/2, Akt and STAT3 in IGF-1R/NIH 3T3 cells; format: cell-based, mouse; settings: GFB204 10 μM
# Procedure: as §3, §4
# [3] = system: adult human brain endothelial cells; experiment: VEGF-dependent human brain endothelial cell migration (modified Boyden chamber); format: cell-based; settings: VEGF 20 ng/ml, 18 hours, read-out: IC50 VEGF-induced endothelial cell migration
# Procedure: Migration of adult human brain endothelial cells was evaluated using a modified Boyden chamber assay as described in Materials and Methods. Vehicle control (FIG. 5A) or GFB204 (FIG. 5B) was added to 2% FBS-containing medium in the outer chamber, and the number of migrated cells to the VEGF-containing lower chamber was determined after an 18-hour incubation (FIG. 5C).
# Human brain endothelial cell migration assay. Migration of adult human brain endothelial cells was evaluated using a modified Boyden chamber assay (BD BioCoat Matrigel Invasion Chamber) (Papadimitriou, E. et al. Biochem Biophys Res Commun, 2001, 282:306-13). The cells were plated at 4×10^4/ml onto an 8 μm pore size membrane coated with a thin layer of Matrigel basement membrane matrix. GFB204 was added to the medium in the outer chamber and the cells were cultured for 18 hours under VEGF-dependent condition in the lower chamber (VEGF 20 ng/ml). Non-invading cells were removed from the upper surface with a cotton swab. Membrane inserts were then fixed with 4% paraformaldehyde and stained with Crystal-Violet dye. The number of cells that migrated to the undersurface of the filters, was quantified by counting the cells migrated in randomly selected microscopic fields (10×). Samples were analyzed for significant differences using a Student's t-test for independent samples.
# Sequence of PDGF (P01127 82-190 limits assumed): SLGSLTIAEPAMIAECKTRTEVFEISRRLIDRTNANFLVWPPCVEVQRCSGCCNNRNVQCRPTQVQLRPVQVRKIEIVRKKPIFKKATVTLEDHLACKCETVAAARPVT
# T1 sequence (P00533 25-1210): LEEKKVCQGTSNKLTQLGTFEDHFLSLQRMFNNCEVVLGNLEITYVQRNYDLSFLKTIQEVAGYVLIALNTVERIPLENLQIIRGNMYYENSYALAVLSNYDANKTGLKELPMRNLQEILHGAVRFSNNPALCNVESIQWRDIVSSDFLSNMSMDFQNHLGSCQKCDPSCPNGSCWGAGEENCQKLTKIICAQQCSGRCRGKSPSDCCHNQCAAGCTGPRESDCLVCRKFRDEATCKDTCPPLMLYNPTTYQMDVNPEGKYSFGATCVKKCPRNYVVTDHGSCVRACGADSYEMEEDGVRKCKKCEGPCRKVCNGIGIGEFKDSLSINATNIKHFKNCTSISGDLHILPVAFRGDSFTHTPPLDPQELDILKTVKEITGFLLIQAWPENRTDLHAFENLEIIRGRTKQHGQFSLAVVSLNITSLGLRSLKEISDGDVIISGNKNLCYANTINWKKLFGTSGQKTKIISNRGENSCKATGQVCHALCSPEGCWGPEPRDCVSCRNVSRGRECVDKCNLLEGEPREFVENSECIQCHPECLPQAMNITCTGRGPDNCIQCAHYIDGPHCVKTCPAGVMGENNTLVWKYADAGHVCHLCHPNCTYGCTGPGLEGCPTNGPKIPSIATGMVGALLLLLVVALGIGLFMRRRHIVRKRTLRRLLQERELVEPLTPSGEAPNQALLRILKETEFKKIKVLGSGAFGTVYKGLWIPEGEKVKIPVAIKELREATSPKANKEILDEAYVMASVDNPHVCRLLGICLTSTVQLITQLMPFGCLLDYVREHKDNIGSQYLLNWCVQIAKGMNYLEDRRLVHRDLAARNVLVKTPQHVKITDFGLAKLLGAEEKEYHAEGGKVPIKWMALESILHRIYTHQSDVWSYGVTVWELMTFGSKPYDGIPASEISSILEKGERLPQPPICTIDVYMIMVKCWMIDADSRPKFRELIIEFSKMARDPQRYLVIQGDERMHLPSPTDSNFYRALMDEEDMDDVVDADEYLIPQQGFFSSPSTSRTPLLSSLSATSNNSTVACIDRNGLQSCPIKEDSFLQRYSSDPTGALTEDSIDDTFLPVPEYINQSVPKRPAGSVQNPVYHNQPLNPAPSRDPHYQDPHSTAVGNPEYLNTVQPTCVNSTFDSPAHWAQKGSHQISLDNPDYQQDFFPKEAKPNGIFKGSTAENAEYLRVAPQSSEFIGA
compound,measurement,setting,value
CCCCOc1c2cc(C(=O)Nc3cc(C(=O)O)cc(C(=O)OCc4ccccc4)c3)cc1Cc1cc(C(=O)Nc3cc(C(=O)O)cc(C(=O)OCc4ccccc4)c3)cc(c1OCCCC)Cc1cc(C(=O)Nc3cc(C(=O)O)cc(C(=O)OCc4ccccc4)c3)cc(c1OCCCC)Cc1cc(C(=O)Nc3cc(C(=O)O)cc(C(=O)OCc4ccccc4)c3)cc(c1OCCCC)C2 [GFB204],[I-125]EGF binding to its receptor,EGFR,not affected
same,binding to PDGF by tryptophan fluorescence titration,PDGF,binds both PDGF and VEGF
same,binding to VEGF by tryptophan fluorescence titration,VEGF,binds both PDGF and VEGF
same,"EGF-stimulation of the phosphorylation of Erk1, Erk2, Akt and STAT3",[1],had little effect and not
same,"IGF-1-stimulation of the phosphorylation of Erk1, Erk2, Akt and STAT3",[2],had little effect and not
same,IC50,[3],600 nM
